Data reported in ChEMBL document CHEMBL5500331, “Discovery of novel peptide-dehydroepiandrosterone hybrids inducing endoplasmic reticulum stress with effective in vitro and in vivo anti-melanoma activities” (Eur J Med Chem, 2024).
The source made the active and inactive calls. The calls are words filed in the database; no cut-off is given here.

Experiments:
B16 [1] = experiment: Anti-melanoma activity against mouse B16 cells xenografted in Kunming mouse model assessed as increase in bax expression at 40 to 60 mg/kg, IG measured after 27 days by IHC staining based analysis; type: functional, organism-based; conditions: dose 40-60 mg/kg, time 27.0 day
B16 [2] = experiment: Anti-melanoma activity against mouse B16 cells xenografted in Kunming mouse model assessed as inhibition of tumor weight at 60 mg/kg, IG measured every two days for 27 days relative to control; type: functional; parameters: scale not given: the % may be the effect or the level left; conditions: time 27 day
B16 [3] = experiment: Antiproliferative activity against mouse B16 cells measured after 48 hrs by MTT assay; type: functional, cell-based; conditions: B16, 48 h
B16 [4] = experiment: Anti-melanoma activity against mouse B16 cells xenografted in Kunming mouse model assessed as reduction in tumor volume at 40 to 80 mg/kg, IG measured after 5 days; type: functional, organism-based; conditions: dose 40-80 mg/kg, time 5.0 day
B16 [5] = experiment: Induction of endoplasmic reticulum (ER) stress in mouse B16 cells assessed as appearance of damaged ER at 9.70 uM measured after 24 hrs by confocal microscopy based analysis; type: functional, cell-based; conditions: dose 9.7 µM
B16 [6] = experiment: Anti-melanoma activity against mouse B16 cells xenografted in Kunming mouse model assessed as reduction in tumor volume at 60 to 80 mg/kg, IG measured after 7 to 27 days; type: functional, organism-based; conditions: dose 60-80 mg/kg, time 7-27 day
[7] = Inhibition of cell migration in mouse B16 cells at 9.70 uM measured after 24 hrs by crystal violet staining based analysis relative to control; type: functional
[8] = Toxicity in Kunming mouse assessed as increase in survival rate at 80 mg/kg, IG measured after 27 days relative to control; type: organism-based; conditions: in vivo, po, time 27 day
B16 [9] = experiment: Induction of endoplasmic reticulum (ER) stress in mouse B16 cells assessed as fragmented distribution at 25 uM measured after 24 hrs by confocal microscopy based analysis; type: functional, cell-based
B16 [10] = experiment: Upregulation of […] expression in mouse B16 cells at 9.70 uM measured after 48 hrs by Western blot analysis; type: functional, cell-based; conditions: dose 9.7 µM
B16 [11] = experiment: Upregulation of caspase 3 expression in mouse B16 cells at 9.70 uM measured after 48 hrs by Western blot analysis; type: functional, cell-based; conditions: dose 9.7 µM
B16 [12] = experiment: Anti-melanoma activity against mouse B16 cells xenografted in Kunming mouse model assessed as reduction in tumor volume at 60 to 80 mg/kg, IG measured after 11 days relative to control; type: functional; parameters: scale not given: the % may be the effect or the level left; conditions: dose 60-80 mg/kg, time 11 day
B16 [13] = experiment: Induction of endoplasmic reticulum (ER) stress in mouse B16 cells assessed as decrease in alix expression at 9.70 uM measured after 48 hrs by Western blot analysis; type: functional, cell-based; conditions: dose 9.7 µM
[14] = Drug metabolism in mouse plasma assessed as abiraterone Tmax at 20 mg/kg, IG; type: ADME, organism-based; conditions: in vivo, po
[15] = Inhibition of cell invasion in mouse B16 cells at 9.70 uM measured after 24 hrs by crystal violet staining based analysis relative to control; type: functional
B16 [16] = experiment: Induction of endoplasmic reticulum (ER) stress in mouse B16 cells assessed as increase in […] expression at 9.70 uM measured after 48 hrs by Western blot analysis; type: functional, cell-based; conditions: dose 9.7 µM
[17] = Toxicity in Kunming mouse assessed as increase in survival rate at 60 mg/kg, IG measured after 27 days relative to control; type: organism-based; conditions: in vivo, po, time 27 day
B16 [18] = experiment: Anti-melanoma activity against mouse B16 cells xenografted in Kunming mouse model assessed as reduction in tumor volume at 40 mg/kg, IG measured after 7 to 27 days; type: functional, organism-based; conditions: time 7-27 day
B16 [19] = experiment: Anti-melanoma activity against mouse B16 cells xenografted in Kunming mouse model assessed as suppression of tumor weight at 60 mg/kg, IG measured every two days for 27 days (reference value: 10.61+/-1.05g); type: functional; conditions: time 27 day
B16 [20] = experiment: Induction of endoplasmic reticulum (ER) stress in mouse B16 cells assessed as increase in CHOP expression at 9.70 uM measured after 48 hrs by Western blot analysis; type: functional, cell-based; conditions: dose 9.7 µM
B16 [21] = experiment: Anti-melanoma activity against mouse B16 cells xenografted in Kunming mouse model assessed as increase in caspase 3 expression at 40 to 60 mg/kg, IG measured after 27 days by IHC staining based analysis; type: functional, organism-based; conditions: dose 40-60 mg/kg, time 27.0 day
B16 [22] = experiment: Anti-melanoma activity against mouse B16 cells xenografted in Kunming mouse model assessed as inhibition of tumor weight at 80 mg/kg, IG measured every two days for 27 days relative to control; type: functional; parameters: scale not given: the % may be the effect or the level left; conditions: time 27 day
[23] = Toxicity in Kunming mouse assessed as effect on body weight at 40 mg/kg, IG measured after 21 days; type: organism-based; conditions: in vivo, po, 504 h, time 21 day
B16 [24] = experiment: Anti-melanoma activity against mouse B16 cells xenografted in Kunming mouse model assessed as suppression of tumor weight at 40 mg/kg, IG measured every two days for 27 days (reference value: 10.61+/-1.05g); type: functional; conditions: time 27 day
[25] = Drug metabolism in mouse plasma assessed as abiraterone Cmax at 20 mg/kg, IG; type: ADME, organism-based; conditions: in vivo, po
B16 [26] = experiment: Induction of apoptosis in mouse B16 cells at 4.85 uM measured after 48 hrs by annexin-V/PI double staining based flow cytometry analysis; type: functional, cell-based
[27] = Inhibition of cell migration in mouse B16 cells at 9.70 uM measured after 48 hrs by scratch-wound healing assay relative to control; type: functional
B16 [28] = experiment: Anti-melanoma activity against mouse B16 cells xenografted in Kunming mouse model assessed as inhibition of tumor weight at 40 mg/kg, IG measured every two days for 27 days relative to control; type: functional; parameters: scale not given: the % may be the effect or the level left; conditions: time 27 day
[29] = Toxicity in Kunming mouse assessed as effect on body weight at 80 mg/kg, IG measured after 21 days; type: organism-based; conditions: in vivo, po, 504 h, time 21 day
B16 [30] = experiment: Downregulation of Bcl-2 expression in mouse B16 cells at 9.70 uM measured after 48 hrs by Western blot analysis; type: functional, cell-based; conditions: dose 9.7 µM
B16 [31] = experiment: Upregulation of caspase 8 expression in mouse B16 cells at 9.70 uM measured after 48 hrs by Western blot analysis; type: functional, cell-based; conditions: dose 9.7 µM
[32] = Toxicity in Kunming mouse assessed as effect on body weight at 60 mg/kg, IG measured after 21 days; type: organism-based; conditions: in vivo, po, 504 h, time 21 day
B16 [33] = experiment: Anti-melanoma activity against mouse B16 cells xenografted in Kunming mouse model assessed as increase in caspase 8 expression at 40 to 60 mg/kg, IG measured after 27 days by IHC staining based analysis; type: functional, organism-based; conditions: dose 40-60 mg/kg, time 27.0 day
[34] = Antiproliferative activity against human Prostate tumor cell line at 25 uM measured after 48 hrs by MTT assay relative to control; type: functional
B16 [35] = experiment: Anti-melanoma activity against mouse B16 cells xenografted in Kunming mouse model assessed as reduction in tumor volume at 40 mg/kg, IG measured after 19 days; type: functional, organism-based; conditions: time 19.0 day
B16 [36] = experiment: Anti-melanoma activity against mouse B16 cells xenografted in Kunming mouse model assessed as suppression of tumor weight at 80 mg/kg, IG measured every two days for 27 days (reference value: 10.61+/-1.05g); type: functional; conditions: time 27 day
B16 [37] = experiment: Induction of endoplasmic reticulum (ER) stress in mouse B16 cells assessed as appearance of vacuolated ER at 9.70 uM measured after 24 hrs by confocal microscopy based analysis; type: functional, cell-based; conditions: dose 9.7 µM
B16 [38] = experiment: Anti-melanoma activity against mouse B16 cells xenografted in Kunming mouse model assessed as decrease in bcl-2 level at 40 to 60 mg/kg, IG measured after 27 days by IHC staining based analysis; type: functional, organism-based; conditions: dose 40-60 mg/kg, time 27.0 day

CC(C)[C@H](NC(=O)CN)C(=O)O[C@H]1CC[C@@]2(C)C(=CC[C@@H]3[C@@H]2CC[C@]2(C)C(c4cccnc4)=CC[C@@H]32)C1
Activity (B16 [1]): Active
Activity (B16 [2]): 98.12%
IC50 (B16 [3]): 9.7 µM
Activity (B16 [4]): Active
Activity (B16 [5]): Active
Activity (B16 [6]): Active
inhibition at 9.7 µM [7]: 70%
survival at 648 h [8]: 100%
Activity (B16 [9]): Active
Activity (B16 [10]): Active
Activity (B16 [11]): Active
Activity (B16 [12]): 100%
Activity (B16 [13]): Active
Tmax [14]: 8 h
inhibition at 9.7 µM [15]: ~65%
Activity (B16 [16]): Active
survival at 648 h [17]: 100%
Activity (B16 [18]): inactive
Activity (B16 [19]): 0.1 g
Activity (B16 [20]): Active
Activity (B16 [21]): Active
Activity (B16 [22]): 99.06%
Activity [23]: Toxic
Activity (B16 [24]): 1.7 g
Cmax [25]: 55.8 ng/mL
Activity (B16 [26]): Active
inhibition at 9.7 µM [27]: 66%
Activity (B16 [28]): 83.96%
Activity [29]: Non-Toxic
Activity (B16 [30]): Active
Activity (B16 [31]): Active
Activity [32]: Non-Toxic
Activity (B16 [33]): Active
Activity [34]: 13.6%
Activity (B16 [35]): Active
Activity (B16 [36]): 0.23 g
Activity (B16 [37]): Active
Activity (B16 [38]): Active
